The nature of data set [1]: Toxicity in rat brain synaptosomes assessed as effect on reduced glutathione level at 40 uM measured after 1 hr relative to control. It counts as subcellular, Synaptosome. To be noted: in vitro.
Data set [2] relates to Brain. Put plainly: Neuroprotective activity against 6-OHDA-induced oxidative stress in rat brain synaptosomes assessed as GSH level at 40 uM relative to control. It counts as functional, subcellular. As to conditions: Synaptosome; call rule not given here.
In data set [3] the test system is Brain. Put plainly: Neuroprotective activity against 6-OHDA-induced oxidative stress in rat brain synaptosomes assessed as cell viability at 40 uM by MTT assay relative to control. To be noted: Synaptosome. It counts as functional, subcellular.
Data set [4] is described as follows: Toxicity in rat brain synaptosomes assessed as reduction in cell viability at 40 uM measured after 1 hr by MTT assay relative to control. It counts as subcellular, Synaptosome. On the technique in general: Tetrazolium dyes change colour on reduction, which living cells bring about.
Data set [5] deals with T1, Amine oxidase [flavin-containing] A (Homo sapiens, UniProt P21397).
T1 sequence (P21397 whole entry): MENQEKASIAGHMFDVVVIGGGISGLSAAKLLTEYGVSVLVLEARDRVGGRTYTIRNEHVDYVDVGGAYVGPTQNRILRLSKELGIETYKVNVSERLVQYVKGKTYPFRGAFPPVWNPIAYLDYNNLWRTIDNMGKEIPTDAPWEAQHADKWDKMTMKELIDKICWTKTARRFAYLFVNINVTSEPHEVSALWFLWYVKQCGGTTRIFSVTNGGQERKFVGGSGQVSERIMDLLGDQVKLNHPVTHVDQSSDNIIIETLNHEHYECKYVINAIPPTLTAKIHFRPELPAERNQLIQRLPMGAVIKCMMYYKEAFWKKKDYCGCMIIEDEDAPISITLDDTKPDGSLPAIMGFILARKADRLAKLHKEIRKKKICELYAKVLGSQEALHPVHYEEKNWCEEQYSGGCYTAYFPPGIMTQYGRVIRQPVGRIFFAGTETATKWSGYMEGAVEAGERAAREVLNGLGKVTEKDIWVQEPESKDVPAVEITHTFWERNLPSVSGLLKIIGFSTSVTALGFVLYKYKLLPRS
The data set can be described thus: Inhibition of MAOA (unknown origin).

The source of these data is ChEMBL document CHEMBL5131422, “Neuroprotective evaluation of novel substituted 1,3,4-oxadiazole and aroylhydrazone derivatives” (Bioorg Med Chem Lett, 2022).

For `COc1ccc2[nH]cc(/C=N\NC(=O)c3ccoc3)c2c1`, the Activity in data set [1] was determined as 25%; in the data set with Brain [2] it was 70%; in the data set with Brain [3], 67%; in data set [4], 20%.
The matching figures for `COc1ccc2[nH]cc(/C=N\NC(=O)c3snnc3C)c2c1`: 25%, 60%, 67% and 15%.
For `COc1ccc(C(=O)N/N=C/c2ccc(Cl)cc2Cl)cc1OC`, the Activity is 25% in data set [1], 70% in the data set on Brain [2], 56% in the data set with Brain [3] and 20% in data set [4].
With `Clc1ccc(-c2nnc(-c3ccccc3)o2)cc1`, the Activity result was “Non-Toxic” in data set [1], 60% in the data set with Brain [2], 66% in the data set on Brain [3] and “Non-Toxic” in data set [4]. Further, the “inhibition (INH)” value in data set [5] is “Active”.
As for `c1ccc(-c2nnc(-c3c[nH]c4ccccc34)o2)cc1`, the Activity entry was “Non-Toxic” in data set [1], 70% in the data set with Brain [2], 56% with Brain [3] and “Non-Toxic” in data set [4]. The “inhibition (INH)” value in data set [5] is “Active”.
With `COc1ccc(C(=O)N/N=C/c2ccc(Cl)cc2Cl)cc1O`, the Activity is 25% in data set [1], 70% in the data set with Brain [2], 56% in the data set with Brain [3] and 20% in data set [4].
For `COc1ccc2[nH]cc(/C=N\NC(=O)c3ccc(Cl)cc3)c2c1`, the Activity in data set [1] is 25%; in the data set with Brain [2] it was 60%; in the data set on Brain [3] it was 67%; in data set [4], 20%.
`COc1ccc2[nH]cc(/C=N\NC(=O)Cc3c[nH]c4ccccc34)c2c1`: the Activity in data set [1] was determined as 25%; in the data set with Brain [2], 60%; with Brain [3], 56%; in data set [4] it was 20%.
On to `COc1ccc2[nH]cc(/C=N\NC(=O)c3c[nH]c4ccccc34)c2c1`, for which the Activity in data set [1] was 25%; in the data set with Brain [2], 70%; in the data set on Brain [3], 56%; in data set [4], 20%.
